Results taken from the supplement of paper PMC10307832.

Columns and labels:
Assay in all cases: relative viability (nuclei count vs DMSO), 5 days (fraction); higher = more cells survive
[1] = compound: C1CN(CCN1)C2=CC=C(C=C2)C3=CN4C(=C(C=N4)C5=CC=NC6=CC=CC=C56)N=C3 [DM3189] + CC(=O)Nc1cccc(-n2c(=O)n(C3CC3)c(=O)c3c(Nc4ccc(I)cc4F)n(C)c(=O)c(C)c32)c1 [Trametinib] (partner 0.02 µM)
Method in brief: (§1)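 Relative viability divides the nuclei count in treated wells by that in vehicle wells. Lung cancer cell lines were seeded in 1536-well plates, dosed by pin tool the next day, and fixed and stained after 5 days in one step with final 0.05% Triton X-100, 1% formaldehyde and 1 ug/ml Hoechst. Dosing was a single drug or a fixed anchor-drug dose plus five library-drug doses (not always all listed) in √10 steps, and values are medians of duplicate plates imaged at 4×.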

[2] = compound: C1CN(CCN1)C2=CC=C(C=C2)C3=CN4C(=C(C=N4)C5=CC=NC6=CC=CC=C56)N=C3 [DM3189] + CC(=O)c1c(C)c2cnc(Nc3ccc(N4CCNCC4)cn3)nc2n(C2CCCC2)c1=O [Palbociclib] (partner 0.5 µM)
Method in brief: as §1

[3] = compound: C1CN(CCN1)C2=CC=C(C=C2)C3=CN4C(=C(C=N4)C5=CC=NC6=CC=CC=C56)N=C3 [DM3189] + Cc1cc(Nc2cc(N3CCN(C)CC3)nc(Sc3ccc(NC(=O)C4CC4)cc3)n2)n[nH]1 [Tozasertib] (partner 0.1 µM)
Method in brief: as §1

[4] = compound: C1CN(CCN1)C2=CC=C(C=C2)C3=CN4C(=C(C=N4)C5=CC=NC6=CC=CC=C56)N=C3 [DM3189] + Cc1nc(Nc2ncc(C(=O)Nc3c(C)cccc3Cl)s2)cc(N2CCN(CCO)CC2)n1 [Dasatinib] (partner 0.075 µM)
Method in brief: as §1

[5] = compound: C1CN(CCN1)C2=CC=C(C=C2)C3=CN4C(=C(C=N4)C5=CC=NC6=CC=CC=C56)N=C3 [DM3189] + NC(=O)Nc1cc(-c2cccc(F)c2)sc1C(=O)N[C@H]1CCCNC1 [AZD7762] (partner 0.2 µM)
Method in brief: as §1

LCLC-97TM1
relative viability ([1]; first compound 0.08 µM): 0.211 | relative viability ([1]; first compound 0.253 µM): 0.198 | relative viability ([1]; first compound 0.8 µM): 0.205 | relative viability ([1]; first compound 2.53 µM): 0.216 | relative viability ([2]; first compound 0.08 µM): 0.196 | relative viability ([2]; first compound 0.253 µM): 0.154 | relative viability ([2]; first compound 0.8 µM): 0.177 | relative viability ([2]; first compound 2.53 µM): 0.178 | relative viability ([3]; first compound 0.08 µM): 0.229 | relative viability ([3]; first compound 0.253 µM): 0.171 | relative viability ([3]; first compound 0.8 µM): 0.182 | relative viability ([3]; first compound 2.53 µM): 0.188 | relative viability ([4]; first compound 0.08 µM): 0.768 | relative viability ([4]; first compound 0.253 µM): 0.591 | relative viability ([4]; first compound 0.8 µM): 0.591 | relative viability ([4]; first compound 2.53 µM): 0.375 | relative viability ([5]; first compound 0.08 µM): 0.275 | relative viability ([5]; first compound 0.253 µM): 0.177 | relative viability ([5]; first compound 0.8 µM): 0.207 | relative viability ([5]; first compound 2.53 µM): 0.171

HARA
relative viability ([1]; first compound 0.08 µM): 0.674 | relative viability ([1]; first compound 0.253 µM): 0.736 | relative viability ([1]; first compound 0.8 µM): 0.712 | relative viability ([1]; first compound 2.53 µM): 0.944 | relative viability ([2]; first compound 0.08 µM): 0.288 | relative viability ([2]; first compound 0.253 µM): 0.194 | relative viability ([2]; first compound 0.8 µM): 0.225 | relative viability ([2]; first compound 2.53 µM): 0.263 | relative viability ([3]; first compound 0.08 µM): 0.0946 | relative viability ([3]; first compound 0.253 µM): 0.0943 | relative viability ([3]; first compound 0.8 µM): 0.0953 | relative viability ([3]; first compound 2.53 µM): 0.0845 | relative viability ([4]; first compound 0.08 µM): 0.358 | relative viability ([4]; first compound 0.253 µM): 0.262 | relative viability ([4]; first compound 0.8 µM): 0.306 | relative viability ([4]; first compound 2.53 µM): 0.313 | relative viability ([5]; first compound 0.08 µM): 0.263 | relative viability ([5]; first compound 0.253 µM): 0.364 | relative viability ([5]; first compound 0.8 µM): 0.161 | relative viability ([5]; first compound 2.53 µM): 0.302

EKVX
relative viability ([1]; first compound 0.08 µM): 0.325 | relative viability ([1]; first compound 0.8 µM): 0.328 | relative viability ([1]; first compound 2.53 µM): 0.338 | relative viability ([2]; first compound 0.08 µM): 0.402 | relative viability ([2]; first compound 0.8 µM): 0.291 | relative viability ([2]; first compound 2.53 µM): 0.393 | relative viability ([3]; first compound 0.08 µM): 0.44 | relative viability ([3]; first compound 0.253 µM): 0.407 | relative viability ([3]; first compound 0.8 µM): 0.449 | relative viability ([3]; first compound 2.53 µM): 0.352 | relative viability ([4]; first compound 0.08 µM): 0.542 | relative viability ([4]; first compound 0.253 µM): 0.473 | relative viability ([4]; first compound 0.8 µM): 0.457 | relative viability ([4]; first compound 2.53 µM): 0.518 | relative viability ([5]; first compound 0.08 µM): 0.809 | relative viability ([5]; first compound 0.8 µM): 0.623 | relative viability ([5]; first compound 2.53 µM): 0.638

NCI-H1755
relative viability ([1]; first compound 0.08 µM): 0.786 | relative viability ([1]; first compound 0.253 µM): 0.801 | relative viability ([1]; first compound 0.8 µM): 0.725 | relative viability ([1]; first compound 2.53 µM): 0.836 | relative viability ([2]; first compound 0.08 µM): 0.467 | relative viability ([2]; first compound 0.253 µM): 0.431 | relative viability ([2]; first compound 0.8 µM): 0.403 | relative viability ([2]; first compound 2.53 µM): 0.396 | relative viability ([3]; first compound 0.08 µM): 0.475 | relative viability ([3]; first compound 0.253 µM): 0.493 | relative viability ([3]; first compound 0.8 µM): 0.453 | relative viability ([3]; first compound 2.53 µM): 0.524 | relative viability ([4]; first compound 0.08 µM): 0.429 | relative viability ([4]; first compound 0.253 µM): 0.401 | relative viability ([4]; first compound 0.8 µM): 0.388 | relative viability ([4]; first compound 2.53 µM): 0.411 | relative viability ([5]; first compound 0.08 µM): 0.482 | relative viability ([5]; first compound 0.253 µM): 0.455 | relative viability ([5]; first compound 0.8 µM): 0.615 | relative viability ([5]; first compound 2.53 µM): 0.372

NCI-H1395
relative viability ([1]; first compound 0.08 µM): 0.902 | relative viability ([1]; first compound 0.253 µM): 1.03 | relative viability ([1]; first compound 2.53 µM): 1.01 | relative viability ([2]; first compound 0.08 µM): 0.528 | relative viability ([2]; first compound 0.253 µM): 0.593 | relative viability ([2]; first compound 2.53 µM): 0.605 | relative viability ([3]; first compound 0.08 µM): 0.69 | relative viability ([3]; first compound 0.253 µM): 0.689 | relative viability ([3]; first compound 0.8 µM): 0.697 | relative viability ([3]; first compound 2.53 µM): 0.799 | relative viability ([4]; first compound 0.08 µM): 0.461 | relative viability ([4]; first compound 0.253 µM): 0.39 | relative viability ([4]; first compound 0.8 µM): 0.397 | relative viability ([4]; first compound 2.53 µM): 0.415 | relative viability ([5]; first compound 0.08 µM): 0.385 | relative viability ([5]; first compound 0.253 µM): 0.396 | relative viability ([5]; first compound 2.53 µM): 0.39

NCI-H2126
relative viability ([1]; first compound 0.08 µM): 0.609 | relative viability ([1]; first compound 0.253 µM): 0.534 | relative viability ([1]; first compound 0.8 µM): 0.509 | relative viability ([1]; first compound 2.53 µM): 0.524 | relative viability ([2]; first compound 0.08 µM): 0.346 | relative viability ([2]; first compound 0.253 µM): 0.348 | relative viability ([2]; first compound 0.8 µM): 0.367 | relative viability ([2]; first compound 2.53 µM): 0.374 | relative viability ([3]; first compound 0.08 µM): 0.823 | relative viability ([3]; first compound 0.253 µM): 0.767 | relative viability ([3]; first compound 0.8 µM): 0.739 | relative viability ([3]; first compound 2.53 µM): 0.803 | relative viability ([4]; first compound 0.08 µM): 0.742 | relative viability ([4]; first compound 0.253 µM): 0.568 | relative viability ([4]; first compound 0.8 µM): 0.446 | relative viability ([4]; first compound 2.53 µM): 0.503 | relative viability ([5]; first compound 0.08 µM): 1.05 | relative viability ([5]; first compound 0.253 µM): 1.07 | relative viability ([5]; first compound 0.8 µM): 0.968 | relative viability ([5]; first compound 2.53 µM): 1.01

H3255
relative viability ([1]; first compound 0.08 µM): 0.789 | relative viability ([1]; first compound 0.253 µM): 0.731 | relative viability ([1]; first compound 0.8 µM): 0.513 | relative viability ([1]; first compound 2.53 µM): 0.732 | relative viability ([2]; first compound 0.08 µM): 0.37 | relative viability ([2]; first compound 0.253 µM): 0.313 | relative viability ([2]; first compound 0.8 µM): 0.308 | relative viability ([2]; first compound 2.53 µM): 0.329 | relative viability ([3]; first compound 0.08 µM): 0.271 | relative viability ([3]; first compound 0.253 µM): 0.604 | relative viability ([3]; first compound 0.8 µM): 0.715 | relative viability ([3]; first compound 2.53 µM): 0.762 | relative viability ([4]; first compound 0.08 µM): 0.553 | relative viability ([4]; first compound 0.253 µM): 0.303 | relative viability ([4]; first compound 0.8 µM): 0.442 | relative viability ([4]; first compound 2.53 µM): 0.32 | relative viability ([5]; first compound 0.08 µM): 1.14 | relative viability ([5]; first compound 0.253 µM): 0.883 | relative viability ([5]; first compound 0.8 µM): 0.88 | relative viability ([5]; first compound 2.53 µM): 0.943

NCI-H2347
relative viability ([1]; first compound 0.08 µM): 0.28 | relative viability ([1]; first compound 0.253 µM): 0.262 | relative viability ([1]; first compound 0.8 µM): 0.276 | relative viability ([1]; first compound 2.53 µM): 0.31 | relative viability ([2]; first compound 0.08 µM): 0.412 | relative viability ([2]; first compound 0.253 µM): 0.4 | relative viability ([2]; first compound 0.8 µM): 0.417 | relative viability ([2]; first compound 2.53 µM): 0.435 | relative viability ([3]; first compound 0.08 µM): 0.464 | relative viability ([3]; first compound 0.253 µM): 0.475 | relative viability ([3]; first compound 0.8 µM): 0.521 | relative viability ([3]; first compound 2.53 µM): 0.515 | relative viability ([4]; first compound 0.08 µM): 0.261 | relative viability ([4]; first compound 0.253 µM): 0.384 | relative viability ([4]; first compound 0.8 µM): 0.341 | relative viability ([4]; first compound 2.53 µM): 0.284 | relative viability ([5]; first compound 0.08 µM): 0.726 | relative viability ([5]; first compound 0.253 µM): 0.779 | relative viability ([5]; first compound 0.8 µM): 0.723 | relative viability ([5]; first compound 2.53 µM): 0.733
